“And” between values parts separate entries of the source, which are not always exact repeats. Identical values can stand only once.
Assays:
[1] = test system: PNH patients with an inadequate response to eculizumab; assay: Phase 2 study: safety and tolerability (TEAEs)
From the text: After completing 24 weeks of treatment, patients entered a long-term extension.

[2] = Phase 2 study: PNH clone size and C3 fragment deposition on erythrocytes by flow cytometry (anti-human C3d antibody); type: in vivo
Description: (§1) FIGS. 4A-4D are graphs depicting the effect on complement biomarkers and PNH clone size. […] Arithmetic mean and standard derivation (SD) were shown for all but the clone size of C3d^+ PNH erythrocytes where geometric mean was used, and the range was shown at each time point. NHS, normal human serum; BL, baseline; LLN, lower limit normal; ULN, upper limit normal.
(§2) Pharmacodynamics were determined by measuring serum AP activity with AP hemolysis assay. Serum CP activity, Plasma Bb concentration, serum FD, and C3 concentrations were also monitored. Complement tests were conducted by a central lab using commercial kits, with the exception of AP hemolysis assay which was conducted internally for exploratory purposes. At each AP hemolysis run, a single normal human serum sample was included in addition to the patient serum samples so hemolysis values of individual patient serum samples could be standardized to the hemolysis value of the normal human serum sample. Finally, PNH clone size and C3 fragment deposition on erythrocytes was measured using flow cytometry with FITC conjugated anti-human C3d antibody.

PNH erythrocytes = assay: as above; type: in vivo
Description: as §1, §2

[3] = test system: PNH patients with an inadequate response to eculizumab; assay: Phase 2 study: RBC transfusion needs (events, units, annualized rates); type: in vivo, human
Description: Transfusion frequency and amount were evaluated via annualized rates and units, respectively. The average intensive rate of transfusion frequency before treatment was calculated by summing the number of transfusion events in the 52 weeks prior to Screening plus days from Screening to Day 1 of dosing from 10 patients and dividing this sum by the patients' total exposure times. The average intensive rate in the 24 weeks post-treatment was calculated with the same method. The ratio of these two intensive rates (post vs. pre) was used to quantify the treatment effect. Standard statistical analysis for comparing the two intensity rates (post- vs pre-treatment) was conducted.

[4] = Phase 2 study: plasma danicopan pharmacokinetics (LC-MS/MS); type: in vivo, human
From the text: The mean (% CV) Ctrough value was 105 (57) ng/mL during these intensive sampling days. Sampling at through times over the rest of the study duration under less controlled conditions yielded a mean (% CV) Ctrough value of 150 (59) ng/mL.

[5] = N=11, Baseline, before danicopan, on eculizumab
[6] = Patient A, Baseline, before danicopan, on eculizumab 900 mg q14d
[7] = Patient B, Baseline, before danicopan, on eculizumab 1200 mg q14d
[8] = Patient C, Baseline, before danicopan, on eculizumab 900 mg q14d
[9] = Patient C, Week 12, danicopan 150 mg TID + eculizumab 900 mg q14d
[10] = Patient C, Week 24, danicopan 150 mg TID + eculizumab 900 mg q14d
[11] = Patient D, Baseline, before danicopan, on eculizumab 900 mg q14d
[12] = Patient D, Week 12, danicopan 150 mg TID + eculizumab 900 mg q14d
[13] = Patient D, Week 24, danicopan 150 mg TID + eculizumab 900 mg q14d
[14] = Patient E, Baseline, before danicopan, on eculizumab 1200 mg q14d
[15] = Patient E, Week 12, danicopan 150 mg TID + eculizumab 1200 mg q14d
[16] = Patient E, Week 24, danicopan 150 mg TID + eculizumab 1200 mg q14d
[17] = Patient F, Baseline, before danicopan, on eculizumab 900 mg q14d
[18] = Patient F, Week 12, danicopan 150 mg TID + eculizumab 900 mg q14d
[19] = Patient F, Week 24, danicopan 150 mg TID + eculizumab 900 mg q14d
[20] = Patient G, Baseline, before danicopan, on eculizumab 1500 mg q14d
[21] = Patient G, Week 12, danicopan 100 mg TID + eculizumab 1500 mg q14d
[22] = Patient G, Week 24, danicopan 100 mg TID + eculizumab 1500 mg q14d
[23] = Patient H, Baseline, before danicopan, on eculizumab 900 mg q14d
[24] = Patient H, Week 12, danicopan 200 mg TID + eculizumab 900 mg q14d
[25] = Patient I, Baseline, before danicopan, on eculizumab 900 mg q14d
[26] = Patient I, Week 12, danicopan 100 mg TID + eculizumab 900 mg q14d
[27] = Patient J, Baseline, before danicopan, on eculizumab 1200 mg q14d
[28] = Patient J, Week 12, danicopan 100 mg TID + eculizumab 1200 mg q14d
[29] = Patient J, Week 24, danicopan 200 mg TID + eculizumab 1200 mg q14d
[30] = Patient K, Baseline, before danicopan, on eculizumab 900 mg q14d
[31] = Patient K, Week 12, danicopan 100 mg TID + eculizumab 900 mg q14d
[32] = Patient K, Week 24, danicopan 150 mg TID + eculizumab 900 mg q14d
[33] = pre-danicopan: 52-week history plus screening to Day 1, ten patients on eculizumab

CC(=O)c1nn(CC(=O)N2C[C@H](F)C[C@H]2C(=O)Nc2cccc(Br)n2)c2ccc(-c3cnc(C)nc3)cc12 [Danicopan, danicopan]
discontinuations due to TEAEs ([1]; 11 patients completing treatment): no discontinuations due to TEAEs | Grade 3 direct bilirubin elevation with grade 1 ALT elevation ([1]; Day 70, resolved by Day 77, attributed to breakthrough hemolysis): One patient experienced a Grade 3 direct bilirubin elevation | severe adverse event of pneumonia requiring hospitalization ([1]; Day 145, recovered Day 152, relationship to study drug considered unlikely): The second patient experienced a severe adverse event of pneumonia | Number of Patients Reporting a TEAE, % ([1]; N=11): (100) % | Abdominal pain, % ([1]; TEAE, N=11): (18) % | Contusion, % ([1]; TEAE, N=11): (18) % | Cough, % ([1]; TEAE, N=11): (18) % | Fatigue, % ([1]; TEAE, N=11): (18) % | Headache, % ([1]; TEAE, N=11): (27) % | Nasopharyngitis, % ([1]; TEAE, N=11): (18) % | Nausea, % ([1]; TEAE, N=11): (18) % | Oropharyngeal, % ([1]; TEAE, N=11): (18) % | Pain in extremity, % ([1]; TEAE, N=11): (18) % | tolerability ([1]; danicopan 100-200 mg TID + eculizumab, 24 weeks): generally well tolerated | discontinuation due to serious adverse event (worsening pulmonary hypertension/edema) ([1]; of twelve enrolled, considered unlikely related to danicopan): One discontinued after 2 doses | TEAEs mild to moderate in severity ([1]; share of treatment TEAEs): 96% | clone size of PNH granulocytes, mean±SD ([2]; Week 24): 95±7.2% | clone size of PNH granulocytes, mean±SD ([2]; baseline): 92±9.2% | PNH RBC clone size, mean (PNH erythrocytes; N=7, Week 24, danicopan 100-200 mg TID + eculizumab): 84±22.1% and 84% | C3d^+ PNHRBCs, geometric mean (PNH erythrocytes; [5]): 22% and 22.2% | PNH RBC clone size, mean (PNH erythrocytes; [5]): 54±24.9% and 54% | C3d^+ PNHRBCs, geometric mean (PNH erythrocytes; N=11, Week 24, danicopan 100-200 mg TID + eculizumab): 6.7% and 6.68% | C3d^+ PNHRBCs (PNH erythrocytes; [6]): 6.30% | PNH RBC clone size (PNH erythrocytes; [6]): 41% | PNH RBC clone size (PNH erythrocytes; Patient A, Week 12, danicopan 150 mg TID + eculizumab 900 mg q14d): 83% | C3d^+ PNHRBCs (PNH erythrocytes; Patient A, Week 24, danicopan 150 mg TID + eculizumab 900 mg q14d): 2.20% | C3d^+ PNHRBCs (PNH erythrocytes; [7]): 8.20% | PNH RBC clone size (PNH erythrocytes; [7]): 80% | PNH RBC clone size (PNH erythrocytes; Patient B, Week 12, danicopan 100 mg TID + eculizumab 900 mg q14d): 89% | C3d^+ PNHRBCs (PNH erythrocytes; Patient B, Week 24, danicopan 100 mg TID + eculizumab 900 mg q14d): 1.00% | C3d^+ PNHRBCs (PNH erythrocytes; [8]): 17.5% | PNH RBC clone size (PNH erythrocytes; [8]): 22% | C3d^+ PNHRBCs (PNH erythrocytes; [9]): 18.6% | PNH RBC clone size (PNH erythrocytes; [9]): 59% | C3d^+ PNHRBCs (PNH erythrocytes; [10]): 16.7% | PNH RBC clone size (PNH erythrocytes; [10]): 51% | C3d^+ PNHRBCs (PNH erythrocytes; [11]): 15.9% | PNH RBC clone size (PNH erythrocytes; [11]): 52% | C3d^+ PNHRBCs (PNH erythrocytes; [12]): 0.200% | PNH RBC clone size (PNH erythrocytes; [12]): 99% | C3d^+ PNHRBCs (PNH erythrocytes; [13]): 5.20% | PNH RBC clone size (PNH erythrocytes; [13]): 100% | C3d^+ PNHRBCs (PNH erythrocytes; [14]): 21.3% | PNH RBC clone size (PNH erythrocytes; [14]): 21% | C3d^+ PNHRBCs (PNH erythrocytes; [15]): 11.8% | PNH RBC clone size (PNH erythrocytes; [15]): 37% | C3d^+ PNHRBCs (PNH erythrocytes; [16]): 4.90% | PNH RBC clone size (PNH erythrocytes; [16]): 53% | C3d^+ PNHRBCs (PNH erythrocytes; [17]): 71.0% | PNH RBC clone size (PNH erythrocytes; [17]): 95% | C3d^+ PNHRBCs (PNH erythrocytes; [18]): 48.0% | PNH RBC clone size (PNH erythrocytes; [18]): 99% | C3d^+ PNHRBCs (PNH erythrocytes; [19]): 53.4% | PNH RBC clone size (PNH erythrocytes; [19]): 98% | C3d^+ PNHRBCs (PNH erythrocytes; [20]): 80.0% | PNH RBC clone size (PNH erythrocytes; [20]): 62.8% | C3d^+ PNHRBCs (PNH erythrocytes; [21]): 29.4% | PNH RBC clone size (PNH erythrocytes; [21]): 90.4% | C3d^+ PNHRBCs (PNH erythrocytes; [22]): 57.0% | PNH RBC clone size (PNH erythrocytes; [22]): 96.0% | C3d^+ PNHRBCs (PNH erythrocytes; [23]): 38.8% | PNH RBC clone size (PNH erythrocytes; [23]): 19% | C3d^+ PNHRBCs (PNH erythrocytes; [24]): 14.9% | PNH RBC clone size (PNH erythrocytes; [24]): 71% | C3d^+ PNHRBCs (PNH erythrocytes; Patient H, Week 24, danicopan 200 mg TID + eculizumab 900 mg q14d): 22.8% | C3d^+ PNHRBCs (PNH erythrocytes; [25]): 13.6% | PNH RBC clone size (PNH erythrocytes; [25]): 73% | C3d^+ PNHRBCs (PNH erythrocytes; [26]): 0.400% | PNH RBC clone size (PNH erythrocytes; [26]): 95% | C3d^+ PNHRBCs (PNH erythrocytes; Patient I, Week 24, danicopan 200 mg TID + eculizumab 900 mg q14d): 0.100% | C3d^+ PNHRBCs (PNH erythrocytes; [27]): 34.3% | PNH RBC clone size (PNH erythrocytes; [27]): 60% | C3d^+ PNHRBCs (PNH erythrocytes; [28]): 59.5% | PNH RBC clone size (PNH erythrocytes; [28]): 99% | C3d^+ PNHRBCs (PNH erythrocytes; [29]): 28.7% | PNH RBC clone size (PNH erythrocytes; [29]): 99% | C3d^+ PNHRBCs (PNH erythrocytes; [30]): 20.2% | PNH RBC clone size (PNH erythrocytes; [30]): 55% | C3d^+ PNHRBCs (PNH erythrocytes; [31]): 44.2% | PNH RBC clone size (PNH erythrocytes; [31]): 84% | C3d^+ PNHRBCs (PNH erythrocytes; [32]): 6.30% | PNH RBC clone size (PNH erythrocytes; [32]): 91% | reduction in transfusion frequency ([3]; post- vs. pre-danicopan): 95.8% | average annualized rate of transfusion events ([3]; post-danicopan (24 weeks)): 0.217 | average annualized transfusion units ([3]; post-danicopan (24 weeks)): 0.43 | average annualized rate of transfusion events ([3]; pre-danicopan): 5.234 | average annualized transfusion units ([3]; pre-danicopan): 9.27 | transfusions administered [3, 33]: 57 | units of packed red blood cells (PRBC) [3, 33]: 101 units | units transfused ([3]; since commencing danicopan through week 24, ten patients): 2 units | Ctrough, mean (% CV) ([4]; intensive sampling days, Week 7): 105 (57) ng/mL | Ctrough, mean (% CV) ([4]; trough sampling over the rest of the study, less controlled conditions): 150 (59) ng/mL

Reference: US20230172930A1, “USE OF COMPLEMENT FACTOR D INHIBITORS ALONE OR IN COMBINATION WITH ANTI-C5 ANTIBODIES FOR TREATMENT OF PAROXYSMAL NOCTURNAL HEMOGLOBINURIA” (Alexion Pharmaceuticals, Inc., priority 2020, published 2023)
